Results reported in PubChem BioAssay (NCI).
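Step 1: Grow cells in 96-well plates. Step 2: Expose to compound for 48 hours at 5 concentrations. Step 3: Interpolate endpoints linearly; if unreached, use highest concentration. TGI: concentration producing complete growth inhibition.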

Legend:
Assay in all cases: DTP human tumour cell line panel, 48 h
HOP-92 NSCLC = test system: HOP-92 NSCLC
MDA-MB-435 = test system: MDA-MB-435
EKVX NSCLC = test system: EKVX NSCLC
UO-31 renal = test system: UO-31 renal
UACC-62 melanoma = test system: UACC-62 melanoma
786-0 renal = test system: 786-0 renal
SW-620 colon = test system: SW-620 colon
BT-549 breast = test system: BT-549 breast
IGROV1 ovarian = test system: IGROV1 ovarian
M14 melanoma = test system: M14 melanoma
NCI-H460 lung = test system: NCI-H460 lung
OVCAR-4 ovarian = test system: OVCAR-4 ovarian
RPMI-8226 leukemia = test system: RPMI-8226 leukemia
HS 578T breast = test system: HS 578T breast
SNB-19 CNS = test system: SNB-19 CNS
OVCAR-3 ovarian = test system: OVCAR-3 ovarian
A498 renal = test system: A498 renal
UACC-257 melanoma = test system: UACC-257 melanoma
NCI/ADR-RES ovarian = test system: NCI/ADR-RES ovarian
MDA-MB-231 breast = test system: MDA-MB-231 breast
SNB-75 CNS = test system: SNB-75 CNS
OVCAR-8 ovarian = test system: OVCAR-8 ovarian
SK-OV-3 ovarian = test system: SK-OV-3 ovarian
SK-MEL-2 melanoma = test system: SK-MEL-2 melanoma
NCI-H23 lung = test system: NCI-H23 lung
HCT-15 colon = test system: HCT-15 colon
HL-60(TB) leukemia = test system: HL-60(TB) leukemia
HCT-116 colon = test system: HCT-116 colon
OVCAR-5 ovarian = test system: OVCAR-5 ovarian
SF-268 CNS = test system: SF-268 CNS
MCF7 breast = test system: MCF7 breast
SR leukemia = test system: SR leukemia
MDA-N = test system: MDA-N
HCC-2998 colon = test system: HCC-2998 colon
SF-295 CNS = test system: SF-295 CNS
DU-145 prostate = test system: DU-145 prostate
TK-10 renal = test system: TK-10 renal
CAKI-1 renal = test system: CAKI-1 renal
ACHN renal = test system: ACHN renal
KM12 colon = test system: KM12 colon
NCI-H226 lung = test system: NCI-H226 lung
MOLT-4 leukemia = test system: MOLT-4 leukemia
HT29 colon = test system: HT29 colon
HOP-62 NSCLC = test system: HOP-62 NSCLC
SF-539 CNS = test system: SF-539 CNS
RXF 393 renal = test system: RXF 393 renal
CCRF-CEM leukemia = test system: CCRF-CEM leukemia
U251 CNS = test system: U251 CNS
SK-MEL-28 melanoma = test system: SK-MEL-28 melanoma
LOX IMVI melanoma = test system: LOX IMVI melanoma
T-47D breast = test system: T-47D breast
COLO 205 colon = test system: COLO 205 colon
SN12C renal = test system: SN12C renal
PC-3 prostate = test system: PC-3 prostate
K-562 leukemia = test system: K-562 leukemia
A549 NSCLC = test system: A549 NSCLC
SK-MEL-5 melanoma = test system: SK-MEL-5 melanoma
MALME-3M melanoma = test system: MALME-3M melanoma
NCI-H522 lung = test system: NCI-H522 lung

Cc1cn(CCCCCCOC(=O)NC(CCCN=C(N)N)C(=O)O)c(=O)[nH]c1=O (stereo not given)
TGI (HOP-92 NSCLC): > 100 µM | TGI (MDA-MB-435): > 100 µM | TGI (EKVX NSCLC): > 100 µM | TGI (UO-31 renal): > 100 µM | TGI (UACC-62 melanoma): > 100 µM | TGI (786-0 renal): > 100 µM | TGI (SW-620 colon): > 100 µM | TGI (BT-549 breast): > 100 µM | TGI (IGROV1 ovarian): > 100 µM | TGI (M14 melanoma): > 100 µM | TGI (NCI-H460 lung): > 100 µM | TGI (OVCAR-4 ovarian): > 100 µM | TGI (RPMI-8226 leukemia): > 100 µM | TGI (HS 578T breast): > 100 µM | TGI (SNB-19 CNS): > 100 µM | TGI (OVCAR-3 ovarian): > 100 µM | TGI (A498 renal): > 100 µM | TGI (UACC-257 melanoma): > 100 µM | TGI (NCI/ADR-RES ovarian): > 100 µM | TGI (MDA-MB-231 breast): > 100 µM | TGI (SNB-75 CNS): > 100 µM | TGI (OVCAR-8 ovarian): > 100 µM | TGI (SK-OV-3 ovarian): > 100 µM | TGI (SK-MEL-2 melanoma): > 100 µM | TGI (NCI-H23 lung): > 100 µM | TGI (HCT-15 colon): > 100 µM | TGI (HL-60(TB) leukemia): > 100 µM | TGI (HCT-116 colon): > 100 µM | TGI (OVCAR-5 ovarian): > 100 µM | TGI (SF-268 CNS): > 100 µM | TGI (MCF7 breast): > 100 µM | TGI (SR leukemia): > 100 µM | TGI (MDA-N): > 100 µM | TGI (HCC-2998 colon): > 100 µM | TGI (SF-295 CNS): > 100 µM | TGI (DU-145 prostate): > 100 µM | TGI (TK-10 renal): > 100 µM | TGI (CAKI-1 renal): > 100 µM | TGI (ACHN renal): > 100 µM | TGI (KM12 colon): > 100 µM | TGI (NCI-H226 lung): > 100 µM | TGI (MOLT-4 leukemia): > 100 µM | TGI (HT29 colon): > 100 µM | TGI (HOP-62 NSCLC): > 100 µM | TGI (SF-539 CNS): > 100 µM | TGI (RXF 393 renal): > 100 µM | TGI (CCRF-CEM leukemia): > 100 µM | TGI (U251 CNS): > 100 µM | TGI (SK-MEL-28 melanoma): > 100 µM | TGI (LOX IMVI melanoma): > 100 µM | TGI (T-47D breast): > 100 µM | TGI (COLO 205 colon): > 100 µM | TGI (SN12C renal): > 100 µM | TGI (PC-3 prostate): > 100 µM | TGI (K-562 leukemia): > 100 µM | TGI (A549 NSCLC): > 100 µM

O=C(CCN1CCCCC1)Nc1ccc2sc3ccccc3c(=O)c2n1
TGI (HOP-92 NSCLC): 1.79 µM | TGI (MDA-MB-435): 25.8 µM | TGI (EKVX NSCLC): 84 µM | TGI (UO-31 renal): 22.1 µM | TGI (UACC-62 melanoma): 30.1 µM | TGI (786-0 renal): 28.5 µM | TGI (SW-620 colon): 33.2 µM | TGI (BT-549 breast): 37.2 µM | TGI (IGROV1 ovarian): 31.3 µM | TGI (M14 melanoma): 27.3 µM | TGI (NCI-H460 lung): 42.1 µM | TGI (SK-MEL-5 melanoma): 61.9 µM | TGI (OVCAR-4 ovarian): 41.9 µM | TGI (RPMI-8226 leukemia): 24.8 µM | TGI (HS 578T breast): 41.5 µM | TGI (SNB-19 CNS): 47.7 µM | TGI (MALME-3M melanoma): 43.6 µM | TGI (OVCAR-3 ovarian): 33.7 µM | TGI (UACC-257 melanoma): 46.3 µM | TGI (NCI/ADR-RES ovarian): 73.9 µM | TGI (MDA-MB-231 breast): 44.4 µM | TGI (SNB-75 CNS): 23 µM | TGI (SK-OV-3 ovarian): 48.7 µM | TGI (HCT-15 colon): 46.6 µM | TGI (HL-60(TB) leukemia): 19.2 µM | TGI (HCT-116 colon): 22.9 µM | TGI (OVCAR-5 ovarian): 43 µM | TGI (SF-268 CNS): 43.3 µM | TGI (MCF7 breast): 57.5 µM | TGI (SR leukemia): 39 µM | TGI (MDA-N): 28.9 µM | TGI (HCC-2998 colon): 30 µM | TGI (SF-295 CNS): 45.7 µM | TGI (DU-145 prostate): 46.1 µM | TGI (NCI-H522 lung): 25.9 µM | TGI (TK-10 renal): 46.9 µM | TGI (CAKI-1 renal): 33.6 µM | TGI (ACHN renal): 52.7 µM | TGI (KM12 colon): 34 µM | TGI (MOLT-4 leukemia): 18.8 µM | TGI (HT29 colon): > 100 µM | TGI (HOP-62 NSCLC): 29.8 µM | TGI (SF-539 CNS): 31.6 µM | TGI (CCRF-CEM leukemia): 54 µM | TGI (U251 CNS): 30.3 µM | TGI (SK-MEL-28 melanoma): 33.8 µM | TGI (LOX IMVI melanoma): 24.8 µM | TGI (T-47D breast): 93.6 µM | TGI (COLO 205 colon): 24.5 µM | TGI (SN12C renal): 52.4 µM | TGI (PC-3 prostate): 30.3 µM | TGI (K-562 leukemia): 28.6 µM | TGI (A549 NSCLC): 35.3 µM

O=C(O)c1c(-c2ccccc2)c(=O)[nH]c2ccccc12
TGI (MDA-MB-435): > 100 µM | TGI (EKVX NSCLC): > 100 µM | TGI (UO-31 renal): > 100 µM | TGI (UACC-62 melanoma): > 100 µM | TGI (786-0 renal): > 100 µM | TGI (SW-620 colon): > 100 µM | TGI (BT-549 breast): > 100 µM | TGI (IGROV1 ovarian): > 100 µM | TGI (M14 melanoma): > 100 µM | TGI (NCI-H460 lung): > 100 µM | TGI (SK-MEL-5 melanoma): > 100 µM | TGI (OVCAR-4 ovarian): > 100 µM | TGI (RPMI-8226 leukemia): > 100 µM | TGI (HS 578T breast): > 100 µM | TGI (SNB-19 CNS): > 100 µM | TGI (MALME-3M melanoma): > 100 µM | TGI (OVCAR-3 ovarian): > 100 µM | TGI (A498 renal): > 100 µM | TGI (UACC-257 melanoma): > 100 µM | TGI (NCI/ADR-RES ovarian): > 100 µM | TGI (MDA-MB-231 breast): > 100 µM | TGI (SNB-75 CNS): > 100 µM | TGI (OVCAR-8 ovarian): > 100 µM | TGI (SK-OV-3 ovarian): > 100 µM | TGI (SK-MEL-2 melanoma): > 100 µM | TGI (NCI-H23 lung): > 100 µM | TGI (HCT-15 colon): > 100 µM | TGI (HL-60(TB) leukemia): > 100 µM | TGI (HCT-116 colon): > 100 µM | TGI (OVCAR-5 ovarian): > 100 µM | TGI (SF-268 CNS): > 100 µM | TGI (MCF7 breast): > 100 µM | TGI (SR leukemia): > 100 µM | TGI (MDA-N): > 100 µM | TGI (HCC-2998 colon): > 100 µM | TGI (SF-295 CNS): > 100 µM | TGI (DU-145 prostate): > 100 µM | TGI (NCI-H522 lung): > 100 µM | TGI (TK-10 renal): > 100 µM | TGI (ACHN renal): > 100 µM | TGI (KM12 colon): > 100 µM | TGI (NCI-H226 lung): > 100 µM | TGI (MOLT-4 leukemia): > 100 µM | TGI (HT29 colon): > 100 µM | TGI (HOP-62 NSCLC): > 100 µM | TGI (RXF 393 renal): > 100 µM | TGI (CCRF-CEM leukemia): > 100 µM | TGI (U251 CNS): > 100 µM | TGI (SK-MEL-28 melanoma): > 100 µM | TGI (LOX IMVI melanoma): > 100 µM | TGI (T-47D breast): > 100 µM | TGI (COLO 205 colon): > 100 µM | TGI (SN12C renal): > 100 µM | TGI (PC-3 prostate): > 100 µM | TGI (K-562 leukemia): > 100 µM | TGI (A549 NSCLC): > 100 µM
